Measured values taken from US20120065179A1, “PRODRUG COMPRISING BETA-KETO CARBOXYLIC ACID, BETA-KETO CARBOXYLIC ACID SALT OR BETA-KETO CARBOXYLIC ACID ESTER FOR DRUG DELIVERY” (YKI, Ytemiska Institutet AB, priority 2009, published 2012).
Where “and” joins values, the source holds several entries; their conditions need not be identical. Identical values can stand only once.

What was measured:
[1] = Storage stability of beta-keto calcium salt prodrug of Nabumetone (17 days at 60° C., HPLC); assay type: physicochemical; conditions: for Relative amount of calcium salt beta-keto prodrug/Nabumetone remaining after 17 days at 60° C.: dry calcium salt, oven at 60° C.
[2] = Aqueous solubility of sodium beta-keto salt prodrug of Nabumetone (Example 13b); assay type: physicochemical; conditions: clear liquid after 3.5 h at 37° C. in 0.5 M NaOH; 200 μL diluted with 5.0 ml mobile phase
Description: 12.1 mg of the of ethyl-5-(6-methoxy-2-naphthyl)-beta-keto-pentanoate product prepared and purified as in Example 8 was mixed with 25 mL of a 0.5 M aqueous solution NaOH and homogenised on a vortex mixer. […] 15 minutes after preparation of the sample, the sample was transferred to an oil bath set at 37° C. with continuous gentle magnetic stirring, and kept there for 3.5 hours. Crystalline flakes remained in the sample at the end of the 3.5 hours heat-treatment, and the sample was thereafter centrifuged and the clear liquid above the sedimented crystals was analysed by HPLC as described above.
After storage around one hour at room temperature a fraction of the sample was then filtered twice through a 0.2 μm filter (Whatman, 0.2 μm PS) fitted to a syringe to give a clear solution. 200 μL of this filtered solution was transferred, in a tightly closed vessel, to an oil bath at 95° C. and kept at this temperature for about 5 hours to bring about quantitative decarboxylation of the labile, dissolved beta-keto carboxylic salt prodrug derivative of Nabumetone.
The heated sample was then mixed with 35 mL of mobile phase (see Example 1) whereby a few solid crystals (comprising Nabumetone) was seen to not dissolve. In order to assure a correct sampling for HPLC analysis, 5 mL of the 35 mL sample was filtered through a 0.2 μm filter, after the whole 35 mL sample had been pH adjusted to 4.21 by 300 μL 0.1 M HCl+100 μL 1 M HCl, to assure that the pH of the sample was close to the pH of the mobile phase itself (pH 4.30). The filtered solution was thereafter analysed by HPLC and found to contain 0.777 mg Nabumetone per liter. If recalculated to the corresponding concentration of nabumetone equivalents in the form of the beta-keto salt prodrug present in dissolved form in the filtered 200 μl sample that was subsequently heat-treated to form Nabumetone above, the obtained concentration corresponds to a Nabumetone concentration of 136.7 mg Nabumetone per liter in the clear aqueous solution, at room temperature, before the heat-treatment at 95° C.

[3] = In-vitro hydrolysis of Nabumetone beta-keto ester pro-prodrug and release of Nabumetone in model blood electrolyte solution at 37° C.; assay type: physicochemical; conditions: model blood solutes solution
[4] = Storage stability of benzoylacetate salts and their corresponding acid (HPLC or gravimetric); assay type: physicochemical; conditions: for weight % of initial amount: Solid benzoylacetic acid, room T and ambient indoor humidity
Description: A 0.2 M solution of ethyl benzoyl acetate (90%, Sigma Aldrich) in 0.5 M NaOH (aq) was prepared at room temperature and stirred for typically 5-24 hours, still at room temperature. After this time a major part of the ethyl benzoyl acetate had been transformed into dissolved sodium benzoyl acetate, as evidenced by monitoring the reaction by analysis of samples by reversed phase HPLC. Some acetophenone and remaining ethyl benzoyl acetate were typically present in the samples, but in minor amounts. The method employed a C8 column with an inner diameter of 150×4.6 mm and 5 micron particles. The mobile phase consisted of 400 ml deionized water+600 ml acetonitrile+0.196 g H3PO4 (85%)+2.760 g NaH2PO4*H2O. The flow rate was set to 1.0 mL/min and UV detection at 254 nm was employed for analysis of the compounds ethylbenzoylacetate (precursor), benzoylacetate (model prodrug) and acetophenone (model drug).
The storage stability of the sodium and calcium salts of benzoylacetate, and of benzoylacetic acid, in solid form, and in aqueous solutions, was investigated by storage of samples under various conditions (see Table 3a above) with regular HPLC- or gravimetric measurements of the samples from time to time. Samples denoted “neutralized” were prepared from a solution prepared as described in Example 1, which was neutralized with diluted HCl after performing the steps in Example 1.
From the data it can be concluded that the best storage stability at room temperature is obtained by storage in the form of the calcium salt.

[5] = Sustained release of acetophenone in vitro in pig blood at 37° C.; conditions: for Benzoyl acetate ion concentration: pig blood pH 6.63

With “5-(6-methoxy-2-naphthyl)-beta-keto-pentanoate [Beta keto salt prodrug]” as the compound, how does the half life ([1]; calcium salt form at 20° C., rule of thumb of doubling of reaction rate per 10° C.) read?
Its half life is roughly 270 days.

And the “Obtained value (area units)” value ([1]; dry calcium salt after 17 days at 60° C., redissolved in water, HPLC)?
Its value is 1591 area units.

What about the “Relative amount of calcium salt beta-keto prodrug/Nabumetone remaining after 17 days at 60° C.” value [1] of the same compound?
Its value is 54.7%.

What about the “Relative amount of calcium salt beta-keto prodrug/Nabumetone remaining after 17 days at 60° C.” value ([1]; listed as calcium beta-keto salt prodrug of Nabumetone) of the same compound?
The value was “more than 50%”.

And the “Expected value if no breakdown occured during storage and a 100% yield was obtained upon precipitation with calcium chloride” value ([1]; recalculated for dilution)?
Its value is 55938 area units.

For `CCOC(=O)CC(=O)CCc1ccc2cc(OC)ccc2c1` [Pro-prodrug/beta-keto ester, ethyl-5-(6-methoxy-2-naphthyl)-beta-keto-pentanoate], which “Area at retention time […] characteristic for detection of the beta-keto ester pro-prodrug” value [2] is on record?
Its value is 632 arbitrary units.

What about the “Pro-prodrug/beta-keto ester (HPLC peak area)” value (“Pro-prodrug/beta-keto ester” for short) ([3]; Time 0.00 hours) of the same compound?
The value was 1440 arbitrary units.

What about the “Pro-prodrug/beta-keto ester” value ([3]; Time 0.67 hours) of the same compound?
The value was 1368 arbitrary units.

What about the “Pro-prodrug/beta-keto ester” value ([3]; Time 1.67 hours) of the same compound?
The value was 1395 arbitrary units.

What about the “Pro-prodrug/beta-keto ester” value ([3]; Time 2.67 hours) of the same compound?
Its value is 1145 arbitrary units.

What about the “Pro-prodrug/beta-keto ester” value ([3]; Time 4.58 hours) of the same compound?
The value was 1130 arbitrary units.

What about the “Pro-prodrug/beta-keto ester” value ([3]; Time 22.6 hours) of the same compound?
Its value is 780 arbitrary units.

And the “Pro-prodrug/beta-keto ester” value ([3]; Time 28.8 hours)?
The value was 672 arbitrary units.

What about the “Pro-prodrug/beta-keto ester” value ([3]; Time 48.8 hours) of the same compound?
The value was 618 arbitrary units.

What about the “Pro-prodrug/beta-keto ester” value ([3]; Time 53.6 hours) of the same compound?
Its value is 0 arbitrary units.

What about the “Pro-prodrug/beta-keto ester” value ([3]; Time 70.3 hours) of the same compound?
Its value is 227 arbitrary units and 245 arbitrary units.

And the “Pro-prodrug/beta-keto ester” value ([3]; Time 121.25 hours)?
The value was 0 arbitrary units.

And the “Pro-prodrug/beta-keto ester” value ([3]; Time 145.0 hours)?
The value was 0 arbitrary units.

What about the “Pro-prodrug/beta-keto ester” value ([3]; Time 172.6 hours) of the same compound?
The value was 0 arbitrary units.

And the “Pro-prodrug/beta-keto ester” value ([3]; Time 197.3 hours)?
The value was 0 arbitrary units.

And the “Pro-prodrug/beta-keto ester” value ([3]; Time 218.4 hours)?
Its value is 0 arbitrary units.

And the “Pro-prodrug/beta-keto ester” value ([3]; Time 293.7 hours)?
Its value is 0 arbitrary units.

And the “Pro-prodrug/beta-keto ester” value ([3]; Time 335 hours)?
Its value is 0 arbitrary units.

Which results are given for `COc1ccc2cc(CCC(=O)CC(=O)O)ccc2c1` [Prodrug/beta-keto anion, 5-(6-methoxy-2-naphthyl)-beta-keto-pentanoate]?
Prodrug/beta-keto anion (HPLC area) ([3]; Time 0.00 hours): 2055 arbitrary units; Prodrug/beta-keto anion (HPLC area) ([3]; Time 0.67 hours): 2313 arbitrary units; Prodrug/beta-keto anion (HPLC area) ([3]; Time 1.67 hours): 2383 arbitrary units; Prodrug/beta-keto anion (HPLC area) ([3]; Time 2.67 hours): 2266 arbitrary units; Prodrug/beta-keto anion (HPLC area) ([3]; Time 4.58 hours): 2204 arbitrary units; Prodrug/beta-keto anion (HPLC area) ([3]; Time 22.6 hours): 2079 arbitrary units; Prodrug/beta-keto anion (HPLC area) ([3]; Time 28.8 hours): 2284 arbitrary units; Prodrug/beta-keto anion (HPLC area) ([3]; Time 48.8 hours): 2312 arbitrary units; Prodrug/beta-keto anion (HPLC area) ([3]; Time 53.6 hours): 2350 arbitrary units; Prodrug/beta-keto anion (HPLC area) ([3]; Time 70.3 hours): 2087 arbitrary units and 2313 arbitrary units; Prodrug/beta-keto anion (HPLC area) ([3]; Time 96.8 hours): 1915 arbitrary units and 1922 arbitrary units; Prodrug/beta-keto anion (HPLC area) ([3]; Time 121.25 hours): 1620 arbitrary units; Prodrug/beta-keto anion (HPLC area) ([3]; Time 145.0 hours): 1444 arbitrary units; Prodrug/beta-keto anion (HPLC area) ([3]; Time 172.6 hours): 1220 arbitrary units; Prodrug/beta-keto anion (HPLC area) ([3]; Time 197.3 hours): 1043 arbitrary units; Prodrug/beta-keto anion (HPLC area) ([3]; Time 218.4 hours): 943 arbitrary units; Prodrug/beta-keto anion (HPLC area) ([3]; Time 293.7 hours): 400 arbitrary units; Prodrug/beta-keto anion (HPLC area) ([3]; Time 335 hours): 398.5 arbitrary units

With `O=C(O)CC(=O)c1ccccc1` [benzoylacetic acid] as the compound, how does the “weight % of initial amount” value ([4]; storage time 0 days) read?
The value was 100 weight %.

And the “weight % of initial amount” value ([4]; storage time 9 days)?
Its value is 94.7 weight %.

And the “weight % of initial amount” value ([4]; storage time 23 days)?
The value was 87.4 weight %.

What about the “weight % of initial amount” value ([4]; storage time 27 days) of the same compound?
The value was 85.4 weight %.

What about the “weight % of initial amount” value ([4]; storage time 29 days) of the same compound?
Its value is 84.4 weight %.

And the “weight % of initial amount” value ([4]; storage time 35 days)?
The value was 81.9 weight %.

And the “weight % of initial amount” value ([4]; storage time 42 days)?
The value was 79.4 weight %.

And the “weight % of initial amount” value ([4]; storage time 52 days)?
Its value is 73.6 weight %.

And the half-life ([4]; solid dry acid, typical indoor conditions)?
The half-life was roughly 100 days.

What does the source list for benzoyl acetate [Benzoyl acetate ion]?
half life ([5]; pig blood pH 6.63, 37° C.): about 3 hours; period of sustained release of the acetophenone (model drug) ([5]; pig blood pH 6.63, 37° C.): at least 6 hours; Benzoyl acetate ion concentration ([5]; Time at 37° C. 0.25): 1.83 mM; Benzoyl acetate ion concentration ([5]; Time at 37° C. 1.33): 1.54 mM; Benzoyl acetate ion concentration ([5]; Time at 37° C. 2.58 (sampling time possibly exchanged with 4.75)): 1.17 mM; Benzoyl acetate ion concentration ([5]; Time at 37° C. 4.75 (sampling time possibly exchanged with 2.58)): 0.929 mM; Benzoyl acetate ion concentration ([5]; Time at 37° C. 5.58): 0.724 mM; Benzoyl acetate ion concentration ([5]; Time at 37° C. 6.58): 0.641 mM; Benzoyl acetate ion concentration ([5]; Time at 37° C. 22.58): 0.0356 mM; Benzoyl acetate ion concentration ([5]; Time at 37° C. −0.17 (analysed just before heating to 37° C.)): 2.30 mM
